Measured values published in patent US9321804B2, “Synthesis and use of anti-tumor drug LQC-Y” (Beijing University of Chinese Medicine, priority 2011, dated 2016).
Counter-ions that a name gives are not always drawn.

How the values were obtained:
[1] = test system: Human hepatoma carcinoma cells Bel7402; experiment: Proliferation of human hepatoma carcinoma cells Bel7402 by MTT; type: cell-based; settings: for 24 h inhibition ratio (%): Bel7402 cells; for inhibiting effect on the proliferation of Bel7402 cells: cultured in vitro, 10-40 μg/ml
Procedure: Human hepatoma carcinoma cells Bel7402 were recovered and subcultured using a culture flask. The preparation of the experiment was started when the cell growth entered into the exponential growth phase. The cells were then digested using pancreatic enzyme which had been filtrated at an increased pressure to prepare the cell suspension. After that the suspension was dyed for 3 min with 0.4% trypan blue. Then a blood cell counting plate was used to count the living cells which were not dyed and the dead cells which were dyed to blue. The number of the living cells identified by trypan blue was more than 98%.
Three kinds of cells which were in the exponential growth phase were inoculated at the density of 1×10^4/ml, to a 96-well plate, 200 μl for each well. Then the plate was put in a 37° C. 5% CO2 incubation box to be cultured for 24 h. The cultivation liquid was sucked away and 200 μl LQC-Y solutions of different concentrations were added thereinto (prepared with DMEM cultivation liquid containing 4% calf serum and the final concentration of which respectively were 10 μg, 20 μg, 40 μg), 4 parallel wells for each concentration. Supernatant cultivation liquid 100 μl was sucked away carefully from each well after being cultured for 24 h and 48 h, and MTS 20 μl was added into each well and homogeneously mixed. The resultant liquid was cultured in a 37° C. 5% CO2 incubation box for a further 1 h. An enzyme-labeling quantitative instrument was used to measure the absorbance at 492 nm. The experiment was repeated for 3 times and then an inhibition ratio was calculated.
The inhibition ratio of cell proliferation (%)=[(average OD value of control group-average OD value of the administration group)/average OD value of control group]×100%

[2] = test system: Human hepatoma carcinoma cells Bel7402; experiment: as above; type: cell-based; settings: 40 μg/ml
S180 sarcoma of mice [3] = experiment: Tumor inhibiting effect of LQC-Y2 in tumor bearing S180 mice
Procedure: The S180 mice that had been inoculated for 7 days were killed by breaking the neck thereof and ascites was taken from the mice respectively in an aseptic environment and the ascites was washed using RPMI1640 culture medium for 2 times and then made into a […] /ml cell suspension using aseptic physiological saline. Then the obtained S180 cell suspension was inoculated hypodermically at the right axillary of mice, 0.1 ml for each mouse and 50 mice total, to establish the solid tumor model.
(§1) 60 mice were divided into 2 categories, including 6 groups, according to the random number table method, i.e. normal control group of the first category, and S180 solid tumor groups of the second category which included positive (cyclophosphamide) control group, negative control group, small dosage group, middle dosage group and large dosage group, 10 mice for each group. The experiment was repeated for 3 times.
LQC-Y2 was made into an emulsion using corn oil. The dosage of the small dosage group was 75 mg/Kg, the dosage of the middle dosage group was 150 mg/Kg, and the dosage of the large dosage group was 300 mg/kg. Equal volume of corn oil was injected into the mice of the negative control group, cyclophosphamide injection 0.02 g/(Kg.d) was injected into the mice of the positive control group. These medicines were administrated 0.1 ml per mouse by intraperitoneal injection every the other day continuously for 15 days. During this period, the common behavior, hair and excrement and so on were observed daily. The mice that had been inoculated with S180 by hypodermic inoculation were killed by breaking the necks thereof after 24 h after the last administration and the tumor, liver and spleen were then taken.
The weight of the solid tumor group mice were measured after all the administration was over and then the mice were killed. The spleens and the livers thereof were weighed by an electronic balance. The spleen index was calculated as the spleen weight of a mouse (mg)/the body weight of a mouse(g) and the liver index was calculated as the liver weight of a mouse[…]/the body weight of a mouse(g).
The solid tumor negative control group mice were weighed on the next day after the administration was finished (the eyeballs of the mice were removed to bleed and the serum was collected for subsequent experimental use). Then the mice were killed by breaking the neck thereof. The tumor tissues were taken out and weighed by an electronic balance to calculate the tumor-inhibiting ratio.
(§2) All the data were statistically analyzed using SPSS11.0 software pack. The comparison of the enumeration data was carried out with X^2 test. P<0.05 had statistical significance.

S180 sarcoma of mice [4] = experiment: Tumor inhibiting effect of LQC-Y3 on tumor bearing S180 mice
Procedure: The S180 mice that had been inoculated for 7 days were killed by breaking the neck thereof and ascites was taken from the mice respectively in an aseptic environment and the ascites was washed using RPMI1640 culture medium for 2 times and then made into a 2×10^7/ml cell suspension using aseptic physiological saline. Then the obtained S180 cell suspension was inoculated hypodermically at the right axillary of mice, 0.1 ml for each mouse and 50 mice total, to establish the solid tumor model.
as §1
LQC-Y3 was prepared using 0.5% CMC-Na. The dosage of the small dosage group was 75 mg/Kg, the dosage of the middle dosage group was 150 mg/Kg, and the dosage of the large dosage group was 300 mg/kg. Equal volume of 0.5% CMC-Na was injected into the mice of the negative control group and cyclophosphamide injection 0.02 g/(Kg.d) was injected into the mice of the positive control group. These medicines were administrated 0.1 ml per mouse by intraperitoneal injection every the other day continuously for 15 days. During this period, the common behavior, hair, excrement and so on were observed daily. The mice that had been inoculated with S180 by hypodermic inoculation were killed by breaking the neck thereof after 24 h after the last administration and the tumor, liver and spleen were then taken.
The weight of the solid tumor group mice were measured after all the administration was finished and then the mice were killed. The spleens and the livers thereof were weighed by an electronic balance. The spleen index was calculated as the spleen weight of a mouse (mg)/the body weight of a mouse (g) and the liver index was calculated as the liver weight of a mouse […]/the body weight of a mouse (g).
The solid tumor negative control group mice were weighed on the next day after the administration was finished (the eyeballs of the mice were removed to bleed and the serum was collected for subsequent experimental use). Then the mice were killed by breaking the neck thereof. The tumor tissues were taken out and weighed by an electronic balance to calculate the tumor inhibiting ratio.
as §2

[5] = S180 Balb/C mice, cyclophosphamide 0.02 g/(Kg.d) i.p., 15 days
[6] = S180 mice, cyclophosphamide 0.02 g/(Kg.d) i.p., 15 days

| SMILES | 24 h inhibition ratio (%) ([1]; 20 μg/ml) | inhibiting effect on the proliferation of Bel7402 cells [1] | 24 h inhibition ratio (%) [2] | 24 h inhibition ratio (%) ([1]; 10 μg/ml) | liver index compared with the negative control group (S180 sarcoma of mice [3]; LQC-Y2 dosage groups, cyclophosphamide 0.02 g/(Kg.d)) | Tumor inhibiting ratio (%) (S180 sarcoma of mice [3]; [5]) | Tumor weight (g) (S180 sarcoma of mice [3]; [5]) | Weight growth (g) (S180 sarcoma of mice [3]; [5]) | Spleen index (100 g/g) (S180 sarcoma of mice [3]; [6]) | liver index compared with the negative control group (S180 sarcoma of mice [4]; LQC-Y3 dosage groups, cyclophosphamide 0.02 g/(Kg.d)) | Tumor inhibiting ratio (%) (S180 sarcoma of mice [4]; [5]) | Tumor weight (g) (S180 sarcoma of mice [4]; [5]) | Weight growth (g) (S180 sarcoma of mice [4]; [5]) | Liver index (100 g/g) (S180 sarcoma of mice [4]; [6]) |
| --- | --- | --- | --- | --- | --- | --- | --- | --- | --- | --- | --- | --- | --- | --- |
| Cc1nc(C)c(COC(=O)C2=CC(O)C(O)C(O)C2)nc1C (stereo not shown) [LQC-Y10, (3,5,6-trimethyl pyrazine-2-yl)methyl 3,4,5-trihydroxycyclohexyl-1-ene formate] | 7.82% | inhibiting effect | 5.69% |  |  |  |  |  |  |  |  |  |  |  |
| Cc1nc(C)c(COC(=O)CCC(C)C2CCC3C4C(O)CC5CC(O)CCC5(C)C4CC(O)C23C)nc1C (stereo not shown) [LQC-Y1, (3,5,6-trimethyl pyrazine-2-yl)methyl-4-(3,7,12-trihydroxy-10,13-dimethylhexadecahydro-1H-cyclopenta[a]phenanthren-17-yl)pentanoate] | 76.66% | evident inhibiting effect | 86.44% | 67.39% |  |  |  |  |  |  |  |  |  |  |
| Cc1nc(C)c(COC(=O)c2cc(O)c3c(c2)C(=O)c2cccc(O)c2C3=O)nc1C [LQC-Y6, (3,5,6-trimethyl pyrazine-2-yl)methyl-4,5-dihydroxy-9,10-dioxo-9,10-dihydroanthracene-2-carboxylate] | 67.23% | inhibiting effect | 81.21% | 26.75% |  |  |  |  |  |  |  |  |  |  |
| Cc1nc(C)c(COC(=O)C2(C)CCC3(C)CCC4(C)C(=CC(=O)C5C6(C)CCC(O)C(C)(C)C6CCC54C)C3C2)nc1C (stereo not shown) [LQC-Y4, (3,5,6-trimethyl pyrazine-2-yl)methyl-10-hydroxy-2,4a,6a,6b,9,9,12a-heptamethyl-13-oxo-1,2,3,4,4a,5,6,6a,6b,7,8,8a,9,10,11,12,12a,12b,13,14b-eicosahydropicene-2-carboxylate] | 44.58% | evident inhibiting effect | 94.42% | 39.31% |  |  |  |  |  |  |  |  |  |  |
| O=P1(N(CCCl)CCCl)NCCCO1 (stereo not shown) [Cyclophosphamide, reference compound] |  |  |  |  | smaller than those of the negative control group | 88.55% | 0.15 ± 0.13^(4) g | 8.98 ± 3.80^(1)(3) g | 5.29 ± 0.47^(1)(4) 100 g/g | smaller than those of the negative control group | 73.40% | 0.25 ± 0.16^(4) g | 6.90 ± 2.04^(1)(3) g | 5.19 ± 0.33 100 g/g |
